One assay relates to MM1.R cells. The assay is described as follows: XTT cytotoxicity, MM1.R. Type of assay: cell-based. The following applies: for IC50: MM1.R, multiple myeloma, dexamethasone resistant, read-out: IC50; for IC50 ratio between resistant and non-resistant cells: MM1.R / MM1.S. How it is done: (§1) The cytotoxic activity of the novel family was evaluated against various tumor cells, including myeloma cells, acute lymphoblastic leukemia cells, acute monocytic leukemia cells, chronic myelogenous leukemia cells, pancreatic cancer cells, breast cancer cells, uterine sarcoma cells, cervix adenocarcinoma cells, ovary cancer cells, melanoma cells, osteosarcoma cells, prostate cancer cells, lung cancer cells, neuroblastoma cells and colorectal adenocarcinoma cells by XTT assay.
On the technique in general: Tetrazolium assays rely on reduction of a dye to a coloured formazan, in cell work by metabolically active cells.

A further assay deals with MES-SA cells. The assay is described as follows: XTT cytotoxicity, MES-SA. Type of assay: cell-based. The following applies: poorly differentiated uterine sarcoma, non-resistant. How it is done: as §1
The next assay has as its system N6/ADR cells. The assay is described as follows: XTT cytotoxicity, N6/ADR. Type of assay: cell-based. The note with it: for IC50 ratio between resistant and non-resistant cells: N6/ADR / NALM6; for sensitivity to Pgp glycoprotein overexpression: N6/ADR vs NALM6 dose response; for IC50: N6/ADR, acute lymphoblastic leukemia, P-gp overexpression, read-out: IC50. Here is the method: as §1
(§2) Most tubulin-binding anticancer drugs currently used in the clinic are substrates for Pgp effux pump. […] The inventors tested the viability of NALM6 acute lymphoblastic leukemia cell line (ALL) and its corresponding doxorubicin resistant N6/ADR cell line that overexpress Pgp glycoprotein and has cross-resistance to vincristine.

The next assay relates to MES-SA/DX5 cells. The assay is described as follows: XTT cytotoxicity, MES-SA/DX5. The note with it: for IC50: MES-SA/DX5, uterine sarcoma, P-gp overexpression; for IC50 ratio between resistant and non-resistant cells: MES-SA/DX5 / MES-SA; for effectiveness in subline overexpressing PgP: MES-SA/DX5 vs MES-SA. Type of assay: cell-based. How it is done: as §1
For a further assay, the system named is RPMI 8226 cells. Put plainly: XTT cytotoxicity, RPMI 8226. The following applies: RPMI 8226, multiple myeloma, non-resistant, read-out: IC50. The assay is classed as cell-based. Here is the method:
as §1

A further assay deals with A2780 cells. Put plainly: XTT cytotoxicity, A2780. The note with it: A2780, ovarian carcinoma, non-resistant. Type of assay: cell-based. How it is done: as §1
A further assay has as its system RPMI-DOX40 cells. Put plainly: XTT cytotoxicity, RPMI-DOX40. Type of assay: cell-based. The following applies: for IC50: RPMI-DOX40, multiple myeloma, P-gp overexpression, read-out: IC50; for IC50 ratio between resistant and non-resistant cells: RPMI-DOX40 / RPMI 8226. How it is done: as §1
For another assay, the system named is RPMI-LR5 cells. Put plainly: XTT cytotoxicity, RPMI-LR5. Type of assay: cell-based. The note with it: for IC50: RPMI-LR5, multiple myeloma, melphalan resistant, read-out: IC50; for IC50 ratio between resistant and non-resistant cells: RPMI-LR5 / RPMI 8226. How it is done: as §1
The next assay has as its system A2780ADR cells. The assay is described as follows: XTT cytotoxicity, A2780ADR. The assay is classed as cell-based. The following applies: for IC50 ratio between resistant and non-resistant cells: A2780ADR / A2780; for IC50: A2780ADR, ovarian carcinoma, resistant. Here is the method: as §1
The next assay relates to NCI-H69 VCR/R cells. Put plainly: XTT cytotoxicity, NCI-H69 VCR/R. The assay is classed as cell-based. The note with it: for IC50 ratio between resistant and non-resistant cells: NCI-H69 VCR/R / NCI-H69; for IC50: NCI-H69 VCR/R, vincristine resistant. How it is done:
as §1

The subject of a further assay is NALM6 cells. Put plainly: XTT cytotoxicity, NALM6. The assay is classed as cell-based. The following applies: NALM6, acute lymphoblastic leukemia, non-resistant, read-out: IC50. Here is the method:
as §1, §2

The test system of another assay is NCI-H69 cells. The assay is described as follows: XTT cytotoxicity, NCI-H69. The assay is classed as cell-based. The following applies: NCI-H69, small cell lung carcinoma, non-resistant. Here is the method:
as §1

The subject of another assay is MM1.S cells. Put plainly: XTT cytotoxicity, MM1.S. The following applies: multiple myeloma, non-resistant, read-out: IC50. Type of assay: cell-based. How it is done:
as §1

The subject of another assay is MCF7 cells. Put plainly: XTT cytotoxicity, MCF7. The assay is classed as cell-based. The note with it: Homo sapiens; MCF7, breast adenocarcinoma, non-resistant. Here is the method:
as §1

The next assay relates to MCF7-VP cells. Put plainly: XTT cytotoxicity, MCF7-VP. The assay is classed as cell-based. The note with it: for IC50: Homo sapiens, MCF7-VP, breast adenocarcinoma, MRP overexpression; for IC50 ratio between resistant and non-resistant cells: MCF7-VP / MCF7. Here is the method:
as §1

The next assay concerns purified tubulin. The assay is described as follows: Tubulin polymerization, cell-free assay. The following applies: tubulin 2.00 mg/mL; 1, 15 and 30 μM; 37° C., 100 min; vs vehicle. The assay is classed as biochemical. Here is the method:
The effect of the compounds on their ability to inhibit tubulin polymerization, was tested against a vehicle control by evaluating polymerization of purified tubulin in a cell-free assay where tubulin (2.00 mg/mL) was exposed to vehicle control or 1, 15 and 30 μM of the compounds (n=2). Polymerizations were tracked by an increase in fluorescence excitation wavelength is 340-360 nm and emission wavelength at 410-460 nm. Fluorescence was monitored at 37° C. every 30 sec for 100 min.

In assay [1] the test system is colchicine binding site on tubulin protein. Put plainly: EBI competition assay, RPMI-8226 cells. The assay is classed as cell-based. The following applies: RPMI-8226 living cells.
The next assay relates to RPMI-MR20 cells. The assay is described as follows: XTT cytotoxicity, RPMI-MR20. The assay is classed as cell-based. The note with it: for IC50: RPMI-MR20, mitoxantrone resistant, read-out: IC50; for IC50 ratio between resistant and non-resistant cells: RPMI-MR20 / RPMI 8226. How it is done: as §1

Each structure is given as a SMILES string. Where two headings read alike, the source gives them in different places. Where a SMILES comes first, the peptide text is derived from it. [ ]: non-standard residue; d: D form. The star is where a group is joined. Dolaproine = CO[C@@H]([C@@H]1CCCN1)[C@@H](C)C(=O)O; Dil = CC[C@H](C)[C@H](NC)[C@@H](CC(=O)O)OC; X1 = C[C@@H](N*)[C@@H](O)c1ccccc1; NMeV = CN[C@H](C(=O)O)C(C)C

As a reminder, the IC50 is the midpoint of a concentration-inhibition curve. For the compound `CC[C@H](C)[C@@H]([C@@H](CC(=O)N1CCC[C@H]1[C@H](OC)[C@@H](C)C(=O)N[C@H](C)[C@@H](O)c1ccccc1)OC)N(C)C(=O)[C@@H](NC(=O)[C@@H](NC)C(C)C)C(C)C` [MMAE, reference compound] (H-[NMeV]V[Dil][Dolaproine]-X1), the IC50 in the assay with MM1.R cells is less than 2.5 nM; with MES-SA cells, 16 nM; with N6/ADR cells, 0.8 nM; with MES-SA/DX5 cells it was 2740 nM; in the assay with RPMI 8226 cells, less than 2.5 nM; in the assay with A2780 cells, 0.8 nM. Besides, the IC50 in the assay with RPMI-DOX40 cells was more than 15 nM; in the assay on RPMI-LR5 cells it was more than 15 nM; in the assay on A2780ADR cells, 25 nM; in the assay on NCI-H69 VCR/R cells, 2 nM; in the assay on NALM6 cells, 0.3 nM; in the assay with NCI-H69 cells it was 3 nM. For the same compound, the IC50 in the assay on MM1.S cells was less than 2.5 nM. Also, the “IC50 ratio between resistant and non-resistant cells” value with N6/ADR cells was 2.667; in the assay with MES-SA/DX5 cells it was 165.037; in the assay on RPMI-DOX40 cells it was more than 6.000; in the assay with RPMI-LR5 cells it was more than 6.000; in the assay on A2780ADR cells it was 31.250; with NCI-H69 VCR/R cells it was 0.667. Besides, in the assay with N6/ADR cells, the “sensitivity to Pgp glycoprotein overexpression” value (“sensitivity” below) is “sensitive to PgP”. For the same compound, the “effectiveness in subline overexpressing PgP” value (“effectiveness” for short) in the assay on MES-SA/DX5 cells is listed as “less effective in the subline overexpressing PgP”.
On to `CC(=O)O[C@H]1C(=O)[C@@]2(C)[C@H]([C@H](OC(=O)c3ccccc3)[C@]3(O)C[C@H](OC(=O)[C@H](O)[C@@H](NC(=O)c4ccccc4)c4ccccc4)C(C)=C1C3(C)C)[C@]1(OC(C)=O)CO[C@@H]1C[C@@H]2O` [Paqlitaxel, paclitaxel], for which the IC50 in the assay with MCF7 cells was 136 nM; in the assay with MES-SA cells (Homo sapiens), 110 nM; in the assay with N6/ADR cells it was 24 nM; with MES-SA/DX5 cells (Homo sapiens) it was more than 1000 nM; in the assay on MCF7-VP cells it was 74 nM; in the assay with A2780 cells (Homo sapiens), 6.5 nM. In addition, the IC50 with A2780ADR cells (A2780 ADR) is 400 nM; in the assay on NCI-H69 VCR/R cells (Homo sapiens), more than 1000 nM; in the assay with NALM6 cells (Homo sapiens, NALM-6), 8.4 nM; with NCI-H69 cells (Homo sapiens) it was 59 nM. Moreover, the “IC50 ratio between resistant and non-resistant cells” value in the assay on N6/ADR cells was 2.857; with MES-SA/DX5 cells it was more than 9.009; in the assay with MCF7-VP cells, 0.544; with A2780ADR cells, 61.538; with NCI-H69 VCR/R cells, more than 16.949. The “sensitivity” value with N6/ADR cells is “sensitive to PgP”. For the same compound, the “effectiveness” value with MES-SA/DX5 cells is listed as “less effective in the subline overexpressing PgP”.
With `Cc1c(C(=O)OCCCCO)oc2c1C(=O)CC(c1ncco1)C2` (stereo not shown) [SMS229, 4-hydroxybutyl-3-methyl-6-(oxazol-2-yl)-4-oxo-4,5,6,7-tetrahydrobenzofuran-2-carboxylate], the “IC50 ratio between resistant and non-resistant cells” value in the assay on MM1.R cells is listed as more than 0.779; in the assay on N6/ADR cells it was 1.136; in the assay on MES-SA/DX5 cells it was 0.700; with MCF7-VP cells, 0.360; in the assay on RPMI-DOX40 cells, 1.155; in the assay on RPMI-LR5 cells it was 1.186. In addition, the “IC50 ratio between resistant and non-resistant cells” value in the assay on RPMI-MR20 cells came to 1.916. For the same compound, the IC50 is more than 1600 nM in the assay with MM1.R cells (MM.1R); 33300 nM in the assay on MCF7 cells; 4560 nM in the assay on MES-SA cells (Homo sapiens); 670 nM in the assay with N6/ADR cells; 3190 nM in the assay on MES-SA/DX5 cells (Homo sapiens); 808 nM with RPMI 8226 cells (Homo sapiens). Also, the IC50 in the assay with MCF7-VP cells amounted to 12000 nM; with RPMI-DOX40 cells it was 933 nM; in the assay on RPMI-LR5 cells it was 958 nM; in the assay on RPMI-MR20 cells, 1550 nM; in the assay with NALM6 cells (Homo sapiens, NALM-6), 590 nM; with MM1.S cells (Homo sapiens), 2050 nM. Moreover, the “rate of tubulin polymerization” value in the assay with purified tubulin is given as “inhibited the rate of tubulin polymerization in a concentration-dependent manner”. In addition, the “prevention of covalent binding of EBI to the colchicine binding site” value in [1] was “prevented the covalent binding of EBI to the colchicine binding site”.
As to `CC[C@]1(O)C[C@H]2CN(CCc3c([nH]c4ccccc34)[C@@](C(=O)OC)(c3cc4c(cc3OC)N(C=O)[C@H]3[C@@](O)(C(=O)OC)[C@H](OC(C)=O)[C@]5(CC)C=CCN6CC[C@]43[C@@H]65)C2)C1` [Vincristine, reference compound], the “IC50 ratio between resistant and non-resistant cells” value in the assay with MM1.R cells is given as 1.063; with N6/ADR cells it was 10.909; in the assay on MES-SA/DX5 cells, 3.684; in the assay with MCF7-VP cells, 2.821; in the assay with RPMI-DOX40 cells, more than 5.263; in the assay with RPMI-LR5 cells, more than 2.105. Also, the “IC50 ratio between resistant and non-resistant cells” value is given as 77.000 with A2780ADR cells, more than 41.667 in the assay with NCI-H69 VCR/R cells and 0.158 in the assay with RPMI-MR20 cells. In addition, the IC50 came out at 1.7 nM with MM1.R cells (MM.1R); 78 nM in the assay on MCF7 cells; 999 nM in the assay on MES-SA cells (Homo sapiens); 12 nM in the assay on N6/ADR cells; 3680 nM with MES-SA/DX5 cells (Homo sapiens); 1.9 nM in the assay with RPMI 8226 cells (Homo sapiens). The IC50 in the assay with MCF7-VP cells was 220 nM; in the assay on A2780 cells (Homo sapiens), 3 nM; in the assay on RPMI-DOX40 cells it was more than 10 nM; in the assay with RPMI-LR5 cells, more than 4 nM; in the assay with A2780ADR cells (A2780 ADR) it was 231 nM; in the assay with NCI-H69 VCR/R cells (Homo sapiens) it was more than 1000 nM. Moreover, the IC50 was 0.3 nM in the assay on RPMI-MR20 cells; 1.1 nM in the assay with NALM6 cells (Homo sapiens, NALM-6); 24 nM in the assay with NCI-H69 cells (Homo sapiens); 1.6 nM in the assay on MM1.S cells (Homo sapiens). The “sensitivity” value in the assay on N6/ADR cells is on record as “sensitive to PgP”. Moreover, the “effectiveness” value in the assay on MES-SA/DX5 cells is recorded as “less effective in the subline overexpressing PgP”. Moreover, the “resistance of cells to treatment” value in the assay on A2780ADR cells (A2780ADR ovary carcinoma cells) and in the assay with NCI-H69 VCR/R cells (NCI-H69 VCR/R lung carcinoma cells) was “resistant to vincristine” each time.
